{"source": "ChEMBL document CHEMBL1122271", "about": "“Folate analogues. 22. Synthesis and biological evaluation of two analogues of dihydrofolic acid possessing a 7,8-dihydro-8-oxapterin ring system” (J Med Chem, 1983)", "format_in_all_cases": "functional, organism-based", "key": {"Enterococcus faecium [1]": {"test_system": "Enterococcus faecium", "assay": "Compound was measured for the growth inhibition of Streptococcus faecium", "settings": "read-out: I50; call rule not given here"}, "Lacticaseibacillus casei": {"test_system": "Lacticaseibacillus casei", "assay": "Compound was measured for the growth inhibition of Lactobacillus casei up to concentration 4 ug/mL; NA means inactive"}, "Enterococcus faecium [2]": {"test_system": "Enterococcus faecium", "assay": "Compound was measured for the growth inhibition of S. faecium; NA means inactive"}}}
{"compound": "NC1=NC(=O)C2N=C(Cc3ccc(C(=O)NC(CCC(=O)O)C(=O)O)cc3)COC2N1", "note": "(centres undefined)", "values": [{"measurement": "IC50", "setting": "Enterococcus faecium [1]", "value": 1.4, "unit": "µg/mL"}, {"measurement": "I50", "setting": "Lacticaseibacillus casei", "value": "Not Active"}]}
{"compound": "NC1=NC(=O)C2N=C(c3ccc(C(=O)NC(CCC(=O)O)C(=O)O)cc3)COC2N1", "note": "(centres undefined)", "values": [{"measurement": "I50", "setting": "Enterococcus faecium [2]", "value": "Not Active"}, {"measurement": "I50", "setting": "Lacticaseibacillus casei", "value": "Not Active"}]}
